According to patent publication US6649763B1, “Optically active quinoline carboxylic acid derivatives with 7-pyrrolidine substituents causing optical activity and a process for the preparation thereof” (Dong Wha Pharm. Ind. Co., Ltd., priority 1999, dated 2003):

Key:
[1] = test system: Staphylococcus aureus 179; experiment: Antibacterial activity in vitro (MIC, agar dilution); type: cell-based; conditions: resistant strain Staphylococcus aureus 179
Experimental: (§1) The optically active quinoline carboxylic acid derivatives of the present invention were tested as to whether they could be useful as antibacterial compounds. In this regard, the compounds were measured for minimum inhibitory concentration (MIC: unit μg/ml) according to an agar dilution process (Hoechst 345) in which Muller-Hinton agars were diluted two fold. For comparison, ciprofloxacin and sparfloxacin were used as controls. Corresponding enantiomers and racemates of the compounds of interest were also used as comparative ones. Bacteria were inoculated at an amount of about 10^7 cfu/ml onto each agar. 18 hours after the inoculation at 37° C., the growth of the bacteria was observed. As to methicillin-resistant strains, their growth was observed 48 hours after the inoculation at […]. Hoechst standard strains were used as the test bacteria.

[2] = test system: Staphylococcus aureus 121E; experiment: as above; type: cell-based; conditions: resistant strain Staphylococcus aureus 121E
Experimental: as §1

[3] = test system: Staphylococcus epidermidis 319; experiment: as above; type: cell-based; conditions: resistant strain Staphylococcus epidermidis 319
Experimental: as §1

[4] = test system: Staphylococcus aureus 303; experiment: as above; type: cell-based; conditions: resistant strain Staphylococcus aureus 303
Experimental: as §1

[5] = test system: Staphylococcus epidermidis 329; experiment: as above; type: cell-based; conditions: resistant strain Staphylococcus epidermidis 329
Experimental: as §1

[6] = test system: Staphylococcus aureus 692E; experiment: as above; type: cell-based; conditions: resistant strain Staphylococcus aureus 692E
Experimental: as §1

[7] = test system: Staphylococcus aureus 241; experiment: as above; type: cell-based; conditions: resistant strain Staphylococcus aureus 241
Experimental: as §1

[8] = test system: Staphylococcus aureus 693E; experiment: as above; type: cell-based; conditions: resistant strain Staphylococcus aureus 693E
Experimental: as §1

[9] = test system: Staphylococcus aureus 293; experiment: as above; type: cell-based; conditions: resistant strain Staphylococcus aureus 293
Experimental: as §1

[10] = test system: Staphylococcus aureus 690E; experiment: as above; type: cell-based; conditions: resistant strain Staphylococcus aureus 690E
Experimental: as §1

[11] = test system: Staphylococcus aureus 88E; experiment: as above; type: cell-based; conditions: resistant strain Staphylococcus aureus 88E
Experimental: as §1

[12] = test system: Staphylococcus aureus 256E; experiment: as above; type: cell-based; conditions: resistant strain Staphylococcus aureus 256E
Experimental: as §1

[13] = test system: Staphylococcus aureus 208E; experiment: as above; type: cell-based; conditions: resistant strain Staphylococcus aureus 208E
Experimental: as §1

[14] = Phototoxicity test; type: in vivo; conditions: CD-1 female mice, oral 50 mg/kg; for Thickness of mice's ears after UV exposure, After 24 hr / Thickness of mice's ears after UV exposure, After 48 hr: UVA light source; for Thickness of mice's ears after UV exposure, After 24 hr / Thickness of mice's ears after UV exposure, After 48 hr / Thickness of mice's ears, Before UV exposure: 50 mg/kg; for edema and erythema observed after UV exposure / increase in ear thickness compared with before the UV exposure: after 48 hours of the UV exposure; for Thickness of mice's ears, Before UV exposure: baseline before UVA
Experimental: It is known that the presence of a halogen atom at the 8-position of the quinolone nuclei causes phototoxicity.
After 16 hours of starvation, CD-1 female mice were orally administered with a dose of 50 mg/kg of the compounds and allowed to be exposed for 4.5 hours to a UVA light source. The mice were located 15 cm away from the light source. Whether the mice were damaged in their ears was adopted as a main factor for the phototoxicity and determined after 24 hour and 48 hour UV exposure. The edema which the mice suffered were examined by measuring the thickness changes of their ears with the aid of electronic calipers and calculating average values. Also, an observation was made as to whether the mice suffered from erythema.

[15] = listed as enantiomer of the compound of Example 14, 50 mg/kg
[16] = listed as Racemic mixture of Example 14 compound
[17] = listed as racemate of the compound of Example 14, 50 mg/kg

| SMILES | minimum inhibitory concentration (MIC) [1] | minimum inhibitory concentration (MIC) [2] | minimum inhibitory concentration (MIC) [3] | minimum inhibitory concentration (MIC) [4] | minimum inhibitory concentration (MIC) [5] | minimum inhibitory concentration (MIC) [6] | minimum inhibitory concentration (MIC) [7] | minimum inhibitory concentration (MIC) [8] | minimum inhibitory concentration (MIC) [9] | minimum inhibitory concentration (MIC) [10] | minimum inhibitory concentration (MIC) [11] | minimum inhibitory concentration (MIC) [12] | minimum inhibitory concentration (MIC) [13] | other results |
| --- | --- | --- | --- | --- | --- | --- | --- | --- | --- | --- | --- | --- | --- | --- |
| CO/N=C1\CN(c2nc3c(cc2F)c(=O)c(C(=O)O)cn3C2CC2)CC1(C)CN.Cl (single isomer, unassigned) [Enantiomer of Example 9 Compound] | 1.563 µg/mL | 0.049 µg/mL | 6.250 µg/mL | 0.781 µg/mL | 12.500 µg/mL | 0.025 µg/mL | 1.563 µg/mL | 0.025 µg/mL | 1.563 µg/mL | 0.025 µg/mL | 0.025 µg/mL | 0.025 µg/mL | 0.049 µg/mL |  |
| CO/N=C1\CN(c2cc3c(cc2F)c(=O)c(C(=O)O)cn3C2CC2)CC1(C)CN.Cl (single isomer, unassigned) [Enantiomer of Example 19 Compound] | 3.125 µg/mL | 0.098 µg/mL | 12.500 µg/mL | 3.125 µg/mL | 12.500 µg/mL | 0.049 µg/mL | 3.125 µg/mL | 0.098 µg/mL | 3.125 µg/mL | 0.049 µg/mL | 0.098 µg/mL | 0.098 µg/mL | 0.098 µg/mL |  |
| CO/N=C1\CN(c2nc3c(cc2F)c(=O)c(C(=O)O)cn3C2CC2)CC1(C)CN.Cl (racemic) [Racemate of Example 9 Compound] | 0.195 µg/mL | 0.007 µg/mL | 0.391 µg/mL | 0.195 µg/mL | 0.781 µg/mL | <0.002 µg/mL | 0.195 µg/mL | 0.007 µg/mL | 0.195 µg/mL | 0.004 µg/mL | 0.007 µg/mL | 0.007 µg/mL | 0.007 µg/mL |  |
| CO/N=C1\CN(c2cc3c(cc2F)c(=O)c(C(=O)O)cn3C2CC2)CC1(C)CN.Cl (racemic) [Racemate of Example 19 Compound] | 0.391 µg/mL | 0.013 µg/mL | 0.781 µg/mL | 0.391 µg/mL | 0.781 µg/mL | 0.013 µg/mL | 0.391 µg/mL | 0.013 µg/mL | 0.391 µg/mL | 0.007 µg/mL | 0.013 µg/mL | 0.013 µg/mL | 0.013 µg/mL |  |
| CO/N=C1\CN(c2c(F)c(N)c3c(=O)c(C(=O)O)cn(C4CC4)c3c2F)CC1(C)CN.Cl (single isomer, unassigned) [Enantiomer of Example 14 Compound] | 0.195 µg/mL | 0.013 µg/mL | 0.781 µg/mL | 0.195 µg/mL | 1.563 µg/mL | 0.004 µg/mL | 0.195 µg/mL | 0.004 µg/mL | 0.195 µg/mL | 0.004 µg/mL | 0.007 µg/mL | 0.013 µg/mL | 0.013 µg/mL | Thickness of mice's ears after UV exposure, After 24 hr [14]: 36.3 ± 3.01; Thickness of mice's ears after UV exposure, After 48 hr [14]: 44.5 ± 4.0; edema and erythema observed after UV exposure [14, 15]: serious edema and erythema; increase in ear thickness compared with before the UV exposure [14, 15]: 150%; Thickness of mice's ears, Before UV exposure [14]: 17.8 ± 0.89 |
| CO/N=C1\CN(c2c(F)c(N)c3c(=O)c(C(=O)O)cn(C4CC4)c3c2F)CC1(C)CN.Cl (racemic) [Racemate of Example 14 Compound] | 0.025 µg/mL | <0.002 µg/mL | 0.049 µg/mL | 0.025 µg/mL | 0.098 µg/mL | <0.002 µg/mL | 0.025 µg/mL | <0.002 µg/mL | 0.025 µg/mL | <0.002 µg/mL | <0.002 µg/mL | <0.002 µg/mL | <0.002 µg/mL | Thickness of mice's ears after UV exposure, After 24 hr [14, 16]: 23.5 ± 1.31; Thickness of mice's ears after UV exposure, After 48 hr [14, 16]: 24.4 ± 2.33; edema and erythema observed after UV exposure [14, 17]: moderate edema and erythema; increase in ear thickness compared with before the UV exposure [14, 17]: 39%; Thickness of mice's ears, Before UV exposure [14, 16]: 17.6 ± 0.52 |
